{
  "source": "ChEMBL document CHEMBL1201862",
  "about": "“PubChem BioAssay data set” (2004)",
  "key": {"[1]": {"test": "alpha-synuclein stem-loop translation blockers – luminescence, H4 neuroglioblastoma cells, dose confirmation, confirmation (AID 2454)", "assay_type": "functional, cell-based"}, "[2]": {"test": "alpha-synuclein stem-loop luciferase translation blockers – H4 neuroglioma cells, luminescence, confirmation (AID 1988)", "assay_type": "functional, cell-based"}, "[3]": {"test": "Luminescence-based dose response cell-based high throughput screening assay for cytotoxic compounds using the IEC-6 intestinal epithelial cell line. [Related pubchem assays: 1858 (Summary AID.), 1825 (Counterscreen.), 1907 (Confirmation screen.)]", "assay_type": "functional"}, "[4]": {"test": "luciferase reporter signal reduction – luminescence, H4-C neuroglioblastoma cells, dose response (AID 2458);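 further: H4 neuroglioblastoma cells stably carrying a luciferase reporter gene fusion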", "assay_type": "functional, cell-based"}, "[5]": {"test": "HEK-293T viability loss after treatment – luminescence, T-cell screen hits, cytotoxicity control for TCR NF-kB inhibitor project, dose response (AID 489026);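 further: cells exposed to compound about 14 hours before the viability readout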", "assay_type": "functional, cell-based"}, "[6]": {"test": "cells", "assay_type": "functional, cell-based"}, "[7]": {"test": "luciferase reporter signal suppression in cells – H4 neuroglioma cells, luminescence, dose response (AID 1990)", "assay_type": "functional, cell-based"}, "[8]": {"system": "Streptococcus", "test": "Luminescence Microorganism-Based Dose Response Follow up to Identify Compounds Cytotoxic to Streptococcus. [Related pubchem assays: 1677 (Project Summary), 1915, 1914, 1902 (Retest at Dose), 1900 (Counter Screen), 1662 (Primary HTS)]", "assay_type": "functional, organism-based"}, "[9]": {"molecular_target": "Transitional endoplasmic reticulum ATPase (Homo sapiens, UniProt P55072, C522A)", "sequence (P55072 2-806 C522A limits assumed)": "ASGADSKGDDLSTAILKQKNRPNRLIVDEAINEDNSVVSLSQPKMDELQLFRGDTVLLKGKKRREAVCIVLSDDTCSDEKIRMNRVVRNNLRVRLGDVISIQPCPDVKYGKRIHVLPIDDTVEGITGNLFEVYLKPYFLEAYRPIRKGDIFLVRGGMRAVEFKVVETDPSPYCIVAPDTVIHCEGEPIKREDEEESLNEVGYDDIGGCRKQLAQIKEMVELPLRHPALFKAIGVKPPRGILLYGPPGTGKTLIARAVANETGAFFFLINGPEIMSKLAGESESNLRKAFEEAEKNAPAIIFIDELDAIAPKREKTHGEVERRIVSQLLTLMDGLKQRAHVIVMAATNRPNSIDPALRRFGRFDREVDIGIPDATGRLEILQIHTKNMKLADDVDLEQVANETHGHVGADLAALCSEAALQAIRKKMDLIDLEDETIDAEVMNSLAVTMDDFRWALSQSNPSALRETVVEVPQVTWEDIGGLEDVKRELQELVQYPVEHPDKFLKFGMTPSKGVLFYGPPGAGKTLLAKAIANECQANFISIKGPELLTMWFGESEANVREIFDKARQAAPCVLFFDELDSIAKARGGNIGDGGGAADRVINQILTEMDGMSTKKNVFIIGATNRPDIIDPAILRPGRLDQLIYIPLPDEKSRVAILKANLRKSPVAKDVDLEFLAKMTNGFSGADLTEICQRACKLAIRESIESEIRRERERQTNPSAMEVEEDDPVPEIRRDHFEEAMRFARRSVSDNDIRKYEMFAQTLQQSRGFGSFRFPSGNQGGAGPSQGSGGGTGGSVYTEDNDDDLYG", "test": "C522A mutant p97 ATPase inhibitors, dose response, counter-screen for p97 inhibitor project, biochemical, luminescence (AID 1544)"}, "[10]": {"molecular_target": "Transitional endoplasmic reticulum ATPase (Homo sapiens, UniProt P55072)", "sequence (P55072 whole entry)": "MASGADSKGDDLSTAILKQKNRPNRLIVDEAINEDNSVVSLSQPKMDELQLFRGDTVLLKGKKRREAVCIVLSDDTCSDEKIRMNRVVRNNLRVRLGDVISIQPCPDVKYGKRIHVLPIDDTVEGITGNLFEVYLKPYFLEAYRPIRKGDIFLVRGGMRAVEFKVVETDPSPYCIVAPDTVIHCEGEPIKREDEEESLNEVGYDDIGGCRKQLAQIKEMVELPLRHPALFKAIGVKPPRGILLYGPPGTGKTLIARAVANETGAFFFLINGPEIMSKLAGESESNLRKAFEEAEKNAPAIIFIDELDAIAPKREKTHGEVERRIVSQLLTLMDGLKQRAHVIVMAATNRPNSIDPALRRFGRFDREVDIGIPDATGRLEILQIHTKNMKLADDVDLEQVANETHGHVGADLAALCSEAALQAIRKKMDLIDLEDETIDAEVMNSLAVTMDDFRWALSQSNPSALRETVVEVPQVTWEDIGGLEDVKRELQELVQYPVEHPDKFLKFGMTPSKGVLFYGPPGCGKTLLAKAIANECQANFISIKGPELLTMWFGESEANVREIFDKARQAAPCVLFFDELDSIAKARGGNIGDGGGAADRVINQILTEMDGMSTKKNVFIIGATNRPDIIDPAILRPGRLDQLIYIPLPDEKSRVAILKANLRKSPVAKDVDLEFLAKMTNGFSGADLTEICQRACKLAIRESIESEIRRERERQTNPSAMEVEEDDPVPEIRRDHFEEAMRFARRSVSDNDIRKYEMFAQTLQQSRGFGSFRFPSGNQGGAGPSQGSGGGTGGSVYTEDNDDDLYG", "test": "p97 ATPase inhibitors, dose response, biochemical (AID 1534)"}, "[11]": {"molecular_target": "Glyceraldehyde-3-phosphate dehydrogenase (Homo sapiens, UniProt P04406)", "sequence (P04406 whole entry)": "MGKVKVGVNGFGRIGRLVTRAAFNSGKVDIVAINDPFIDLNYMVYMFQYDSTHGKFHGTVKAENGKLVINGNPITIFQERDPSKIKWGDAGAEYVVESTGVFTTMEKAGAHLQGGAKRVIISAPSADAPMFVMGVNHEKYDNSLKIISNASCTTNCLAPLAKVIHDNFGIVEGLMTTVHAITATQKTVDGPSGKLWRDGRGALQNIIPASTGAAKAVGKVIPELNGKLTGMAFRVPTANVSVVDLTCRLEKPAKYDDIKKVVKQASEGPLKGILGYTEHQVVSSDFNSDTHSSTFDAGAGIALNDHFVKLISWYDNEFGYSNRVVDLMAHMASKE"}, "[12]": {"molecular_target": "T1, Dual specificity protein phosphatase 6 (Rattus norvegicus, UniProt Q64346)", "T1 sequence (Q64346 whole entry)": "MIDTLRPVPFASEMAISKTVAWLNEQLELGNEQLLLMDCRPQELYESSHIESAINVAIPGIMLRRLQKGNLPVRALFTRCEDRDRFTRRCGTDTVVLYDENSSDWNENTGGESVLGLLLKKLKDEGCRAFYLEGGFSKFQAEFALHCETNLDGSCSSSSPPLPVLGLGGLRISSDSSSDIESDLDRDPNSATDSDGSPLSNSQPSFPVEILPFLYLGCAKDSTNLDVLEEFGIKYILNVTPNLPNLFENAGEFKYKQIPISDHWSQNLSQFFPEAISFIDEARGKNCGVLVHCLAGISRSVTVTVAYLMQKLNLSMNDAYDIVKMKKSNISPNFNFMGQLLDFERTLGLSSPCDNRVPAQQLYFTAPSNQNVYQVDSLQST"}, "[13]": {"molecular_target": "Heat shock cognate 71 kDa protein (Homo sapiens, UniProt P11142)", "sequence (P11142 whole entry)": "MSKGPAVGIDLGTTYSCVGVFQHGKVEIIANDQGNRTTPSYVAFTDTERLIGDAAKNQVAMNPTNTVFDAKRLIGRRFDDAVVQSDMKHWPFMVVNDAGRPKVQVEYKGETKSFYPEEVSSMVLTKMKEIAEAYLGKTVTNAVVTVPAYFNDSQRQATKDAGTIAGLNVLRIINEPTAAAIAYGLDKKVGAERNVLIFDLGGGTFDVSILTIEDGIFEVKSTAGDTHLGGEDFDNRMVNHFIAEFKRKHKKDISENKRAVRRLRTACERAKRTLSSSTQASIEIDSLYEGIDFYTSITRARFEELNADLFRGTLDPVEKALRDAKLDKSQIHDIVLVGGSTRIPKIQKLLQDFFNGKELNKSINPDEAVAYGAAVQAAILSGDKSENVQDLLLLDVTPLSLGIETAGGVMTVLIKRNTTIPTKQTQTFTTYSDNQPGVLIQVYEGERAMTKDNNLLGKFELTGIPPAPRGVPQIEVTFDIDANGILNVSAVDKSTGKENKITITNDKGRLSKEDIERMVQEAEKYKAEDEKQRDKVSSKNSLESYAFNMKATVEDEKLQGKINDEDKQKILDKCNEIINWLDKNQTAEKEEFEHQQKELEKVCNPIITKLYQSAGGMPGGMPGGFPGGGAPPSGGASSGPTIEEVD", "test": "In Vitro Hsc70 Dose Response Fluorescence Polarization Assay. [Related pubchem assays: 1072 ]"}, "[14]": {"molecular_target": "Heat shock 70 kDa protein 1A (Homo sapiens, UniProt P0DMV8)", "sequence (P0DMV8 whole entry)": "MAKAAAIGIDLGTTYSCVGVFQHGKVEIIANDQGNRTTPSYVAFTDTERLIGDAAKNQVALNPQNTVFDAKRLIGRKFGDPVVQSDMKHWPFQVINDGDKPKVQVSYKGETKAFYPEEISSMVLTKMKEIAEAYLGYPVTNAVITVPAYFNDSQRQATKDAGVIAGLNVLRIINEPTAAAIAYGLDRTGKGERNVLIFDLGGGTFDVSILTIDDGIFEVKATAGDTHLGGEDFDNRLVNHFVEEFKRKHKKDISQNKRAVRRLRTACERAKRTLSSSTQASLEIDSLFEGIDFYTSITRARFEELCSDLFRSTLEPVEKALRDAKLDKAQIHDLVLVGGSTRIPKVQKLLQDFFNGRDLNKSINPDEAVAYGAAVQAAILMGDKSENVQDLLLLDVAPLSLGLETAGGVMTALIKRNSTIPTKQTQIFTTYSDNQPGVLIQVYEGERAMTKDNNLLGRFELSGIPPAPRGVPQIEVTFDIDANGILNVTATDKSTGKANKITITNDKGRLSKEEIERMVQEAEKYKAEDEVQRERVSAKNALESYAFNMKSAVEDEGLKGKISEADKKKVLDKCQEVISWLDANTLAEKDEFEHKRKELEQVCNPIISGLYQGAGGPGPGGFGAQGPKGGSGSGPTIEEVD", "test": "inhibition of Hsp70 binding activity – biochemical, fluorescence polarization, SAR follow-up (AID 1072)"}, "[15]": {"molecular_target": "T2, Tyrosine-protein phosphatase non-receptor type 7 (Homo sapiens, UniProt P35236)", "T2 sequence (P35236 whole entry)": "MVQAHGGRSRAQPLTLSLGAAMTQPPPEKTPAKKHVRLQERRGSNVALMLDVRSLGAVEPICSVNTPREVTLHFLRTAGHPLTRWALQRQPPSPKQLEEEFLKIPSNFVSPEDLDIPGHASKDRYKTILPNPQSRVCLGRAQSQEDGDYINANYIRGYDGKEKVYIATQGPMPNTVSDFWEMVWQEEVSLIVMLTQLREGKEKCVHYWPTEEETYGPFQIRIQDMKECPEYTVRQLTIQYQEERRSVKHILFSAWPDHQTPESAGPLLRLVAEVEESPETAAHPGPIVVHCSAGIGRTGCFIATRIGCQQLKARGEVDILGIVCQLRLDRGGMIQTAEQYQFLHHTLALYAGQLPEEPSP", "assay_type": "functional"}, "[16]": {"molecular_target": "T1, Dual specificity protein phosphatase 6", "assay_type": "functional"}, "[17]": {"molecular_target": "T3, Zinc finger protein mex-5 (Caenorhabditis elegans, UniProt Q9XUB2)", "T3 sequence (Q9XUB2 whole entry)": "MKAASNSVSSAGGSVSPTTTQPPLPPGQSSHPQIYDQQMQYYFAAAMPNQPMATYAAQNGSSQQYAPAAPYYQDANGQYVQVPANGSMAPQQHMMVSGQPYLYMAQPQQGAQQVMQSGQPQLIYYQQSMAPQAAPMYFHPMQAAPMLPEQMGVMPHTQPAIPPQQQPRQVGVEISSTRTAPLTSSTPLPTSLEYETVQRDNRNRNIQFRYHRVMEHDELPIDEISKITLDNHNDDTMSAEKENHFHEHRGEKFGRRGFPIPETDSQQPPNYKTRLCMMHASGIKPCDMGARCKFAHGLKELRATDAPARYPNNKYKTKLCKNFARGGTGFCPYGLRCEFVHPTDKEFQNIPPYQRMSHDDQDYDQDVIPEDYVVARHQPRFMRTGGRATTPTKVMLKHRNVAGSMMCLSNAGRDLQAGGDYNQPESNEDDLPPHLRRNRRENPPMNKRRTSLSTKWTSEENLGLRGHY", "test": "potency of MEX-5 RNA-binding blockers – biochemical, C. elegans, fluorescence polarization, dose response (AID 1960)"}, "[18]": {"molecular_target": "Procathepsin L (Homo sapiens, UniProt P07711)", "sequence (P07711 whole entry)": "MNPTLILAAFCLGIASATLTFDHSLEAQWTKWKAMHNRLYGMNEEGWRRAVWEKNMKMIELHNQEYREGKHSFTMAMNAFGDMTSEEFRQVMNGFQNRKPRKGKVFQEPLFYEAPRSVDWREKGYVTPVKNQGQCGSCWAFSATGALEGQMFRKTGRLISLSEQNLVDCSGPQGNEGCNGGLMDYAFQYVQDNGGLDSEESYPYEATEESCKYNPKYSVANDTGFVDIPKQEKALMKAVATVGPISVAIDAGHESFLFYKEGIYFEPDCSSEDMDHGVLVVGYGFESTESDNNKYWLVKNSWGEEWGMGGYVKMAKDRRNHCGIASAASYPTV"}, "[19]": {"test": "viability loss in THP-1 monocytes – THP-1 cells, cytotoxicity control for Vif-APOBEC3G degradation inhibitor project, dose response (AID 1117359)", "assay_type": "functional", "details": "THP-1"}, "[20]": {"molecular_target": "Large T antigen (Simian virus 40, UniProt P03070)", "sequence (P03070 whole entry)": "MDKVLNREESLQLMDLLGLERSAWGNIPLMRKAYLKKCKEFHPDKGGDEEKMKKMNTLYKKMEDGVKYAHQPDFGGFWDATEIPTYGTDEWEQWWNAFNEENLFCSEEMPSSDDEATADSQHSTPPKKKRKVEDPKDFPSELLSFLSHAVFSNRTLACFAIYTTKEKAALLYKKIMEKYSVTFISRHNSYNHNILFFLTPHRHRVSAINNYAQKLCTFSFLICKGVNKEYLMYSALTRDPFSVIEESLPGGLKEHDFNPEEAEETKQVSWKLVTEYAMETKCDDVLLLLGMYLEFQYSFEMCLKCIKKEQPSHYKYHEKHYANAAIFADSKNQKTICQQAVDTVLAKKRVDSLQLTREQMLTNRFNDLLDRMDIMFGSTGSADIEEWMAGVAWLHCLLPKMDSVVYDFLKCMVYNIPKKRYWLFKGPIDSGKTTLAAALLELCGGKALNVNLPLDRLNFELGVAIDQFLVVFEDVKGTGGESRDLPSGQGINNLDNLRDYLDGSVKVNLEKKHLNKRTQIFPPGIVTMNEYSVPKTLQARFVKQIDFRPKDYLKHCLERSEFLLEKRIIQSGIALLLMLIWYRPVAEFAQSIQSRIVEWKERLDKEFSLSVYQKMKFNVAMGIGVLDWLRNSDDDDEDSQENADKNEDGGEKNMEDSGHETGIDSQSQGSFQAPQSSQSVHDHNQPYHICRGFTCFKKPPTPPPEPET", "assay_type": "functional, Betapolyomavirus macacae"}, "[21]": {"test": "viability loss of HPDE-C7K cells – cell-based, fluorescence, HTS, primary screen (AID 431)", "assay_type": "functional", "details": "Homo sapiens"}, "[22]": {"molecular_target": "T4, RNA-binding protein pos-1 (Caenorhabditis elegans, UniProt G5EF15)", "T4 sequence (G5EF15 whole entry)": "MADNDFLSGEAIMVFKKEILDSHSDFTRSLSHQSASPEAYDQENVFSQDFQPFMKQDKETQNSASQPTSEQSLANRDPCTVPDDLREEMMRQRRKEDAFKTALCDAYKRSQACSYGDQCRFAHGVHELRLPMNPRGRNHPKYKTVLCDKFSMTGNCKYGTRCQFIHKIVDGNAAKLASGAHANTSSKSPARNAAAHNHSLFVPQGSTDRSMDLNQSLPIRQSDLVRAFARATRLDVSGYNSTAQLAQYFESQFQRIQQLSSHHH", "test": "disruptors of C. elegans POS-1 RNA interaction – biochemical, fluorescence polarization, dose response (AID 1964);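 further: purified POS-1 fused to maltose binding protein made in E. coli; potency of compounds blocking POS-1 binding to fluorescent RNA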"}, "[23]": {"test": "HPDE-C7 pancreatic duct cell viability loss – fluorescence, HTS (AID 430)", "assay_type": "functional, cell-based", "details": "Homo sapiens"}, "[24]": {"molecular_target": "FAD-linked sulfhydryl oxidase ALR (Homo sapiens, UniProt P55789)", "sequence (P55789 whole entry)": "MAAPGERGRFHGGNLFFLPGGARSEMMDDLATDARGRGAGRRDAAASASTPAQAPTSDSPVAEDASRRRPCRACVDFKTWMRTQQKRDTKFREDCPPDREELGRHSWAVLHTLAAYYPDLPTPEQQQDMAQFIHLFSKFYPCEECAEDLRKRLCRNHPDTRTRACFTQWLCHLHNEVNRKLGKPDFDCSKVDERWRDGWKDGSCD", "test": "ALR-catalysed DTT oxidation blockers – biochemical, H2O2 detection, luminescence, cherry-pick, dose response (AID 493248)"}, "[25]": {"molecular_target": "T5, Aspartyl aminopeptidase (Plasmodium falciparum 3D7, UniProt Q8I2J3)", "T5 sequence (Q8I2J3 whole entry)": "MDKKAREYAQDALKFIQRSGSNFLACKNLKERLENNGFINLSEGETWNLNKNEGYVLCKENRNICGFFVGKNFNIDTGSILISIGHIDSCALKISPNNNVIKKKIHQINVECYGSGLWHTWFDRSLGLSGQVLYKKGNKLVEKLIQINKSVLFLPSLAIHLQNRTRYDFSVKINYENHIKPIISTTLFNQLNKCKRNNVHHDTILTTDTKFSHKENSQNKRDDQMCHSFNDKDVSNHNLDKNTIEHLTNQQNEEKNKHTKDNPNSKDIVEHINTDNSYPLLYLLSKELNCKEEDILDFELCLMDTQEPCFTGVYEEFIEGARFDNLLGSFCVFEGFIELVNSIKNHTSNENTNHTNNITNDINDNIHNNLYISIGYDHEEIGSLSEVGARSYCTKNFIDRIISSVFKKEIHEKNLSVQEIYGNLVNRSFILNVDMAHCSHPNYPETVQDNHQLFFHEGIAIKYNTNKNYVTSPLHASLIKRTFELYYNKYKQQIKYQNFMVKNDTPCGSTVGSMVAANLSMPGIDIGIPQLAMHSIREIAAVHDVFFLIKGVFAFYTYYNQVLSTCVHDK"}},
  "note": "The source made the active and inactive calls.",
  "data": [
    {"smiles": "Cc1ccc(Nc2nc(-c3c(C)nc4ccccn34)cs2)cc1", "values": [
      {"measurement": "EC50", "setting": "[1]", "result": "0.013 µM (active)"},
      {"measurement": "EC50", "setting": "[2]", "result": "< 0.1 µM (active)"},
      {"measurement": "IC50", "setting": "[3]", "result": "0.0895 µM (active)"},
      {"measurement": "EC50", "setting": "[4]", "result": "0.021 µM (active)"},
      {"measurement": "IC50", "setting": "[5]", "result": "> 80 µM (inactive)"},
      {"measurement": "EC50", "setting": "[6]", "result": "0.027 µM (active)"},
      {"measurement": "EC50", "setting": "[7]", "result": "< 0.1 µM (active)"}
    ]},
    {"smiles": "O=C(c1ccc(F)cc1)n1c2ccccc2c2ccccc21", "values": [
      {"measurement": "EC50", "setting": "[8]", "result": "> 500 µM (not active)"}
    ]},
    {"smiles": "COc1ccc(/C=N/Nc2nnc(-c3ccccc3)c(O)n2)cc1", "values": [
      {"measurement": "IC50", "setting": "[9]", "result": "> 50 µM (not active)"},
      {"measurement": "IC50", "setting": "[10]", "result": "> 50 µM (not active)"}
    ]},
    {"smiles": "O=C(O)c1ccc2c(c1)C1C=CCC1C(C(=O)O)N2", "note": "(stereo not given)", "values": [
      {"measurement": "IC50", "setting": "[11]", "result": "> 100 µM (not active)"},
      {"measurement": "IC50", "setting": "[12]", "result": "17.8 µM (active)"},
      {"measurement": "IC50", "setting": "[13]", "result": "> 100 µM (not active)"},
      {"measurement": "IC50", "setting": "[14]", "result": "2.42 µM (active)"},
      {"measurement": "IC50", "setting": "[15]", "result": "2.51 µM (active)"},
      {"measurement": "IC50", "setting": "[16]", "result": "15.5 µM (active)"}
    ]},
    {"smiles": "Oc1ccc(/C=C/c2cc(O)cc(O)c2)cc1", "note": "[RESVERATROL]", "values": [
      {"measurement": "EC50", "setting": "[17]", "result": "163 µM (active)"},
      {"measurement": "IC50", "setting": "[18]", "result": "> 59.6 µM (not active)"},
      {"measurement": "CC50", "setting": "[19]", "result": "26.3 µM (active)"},
      {"measurement": "IC50", "setting": "[20]", "result": "26.2 µM (active)"},
      {"measurement": "EC50", "setting": "[21]", "result": "> 20 µM (not active)"},
      {"measurement": "EC50", "setting": "[22]", "result": "> 300 µM (not active)"},
      {"measurement": "EC50", "setting": "[23]", "result": "6.97 µM (active)"},
      {"measurement": "AC50", "setting": "[24]", "result": "4.02 µM (active)"},
      {"measurement": "IC50", "setting": "[25]", "result": "2.24 µM (active)"}
    ]}
  ]
}
